Experiments:
purple nutsedge = assay: Test D purple nutsedge; type: in vivo, Cyperus rotundus; conditions: Preemergence, 0 to 100 scale
How it was run: (§1)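 Weed seeds planted in sandy loam; species kept apart in individual pots or compartments. Preemergence tests: treatment to soil surface within one day. Greenhouse growth, then visual injury scoring at 14–21 days (0–100).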

blackgrass = assay: Test E blackgrass; type: in vivo, Alopecurus myosuroides; conditions: Preemergence
wild oat = assay: Test E wild oat; type: in vivo, Avena fatua; conditions: Preemergence
morningglory = assay: Test B pre/postemergence morningglory; type: in vivo, Ipomoea hederacea
How it was run: (§2)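 Test chemicals in a non-phytotoxic solvent mixture with surfactant were sprayed preemergence onto planted seeds and postemergence onto plants 2 to 18 cm tall (1- to 4-leaf stage). After twelve to sixteen days in a greenhouse, injury was visually rated against untreated controls from 0 (no effect) to 10 (complete control).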

winter wheat [1] = assay: Test E winter wheat; type: in vivo, Triticum aestivum; conditions: Postemergence
How it was run: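 For postemergence, application to 1- to 4-leaf plants growing in a 60:40 sandy loam–potting mix substrate. Formulation: non-phytotoxic solvent mixture plus surfactant. Untreated controls served as the reference for the visual rating after ~21–28 days.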

sandbur = assay: Test D sandbur; type: in vivo, Cenchrus echinatus; conditions: Preemergence, 0 to 100 scale
How it was run: as §1

winter wheat [2] = assay: Test E winter wheat; type: in vivo, Triticum aestivum; conditions: Preemergence
common pursiane = assay: Test D common purslane; type: in vivo, Portulaca oleracea; conditions: Preemergence, 0 to 100 scale
How it was run: as §1

duck salad = assay: Test B flood test duck salad; type: in vivo, Heteranthera limosa
How it was run: (§3)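 Plants were grown to the 2-leaf stage before treatment with test chemical, then held in a greenhouse for twelve to sixteen days. Injury was visually rated against untreated controls on a 0–10 scale, where 0 is no effect and 10 is complete control.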

giant foxtail = assay: Test B pre/postemergence giant foxtail; type: in vivo, Setaria faberii
How it was run: as §2

Italian ryegrass = assay: Test E Italian ryegrass; type: in vivo, Lolium multiflorum; conditions: Preemergence
green foxtail = assay: Test E green foxtail; type: in vivo, Setaria viridis; conditions: Preemergence
rice = assay: Test B flood test rice; type: in vivo, Oryza sativa
How it was run: as §3

winter barley = assay: Test E winter barley; type: in vivo, Hordeum vulgare; conditions: Preemergence
goosegrass = assay: Test D goosegrass; type: in vivo, Eleusine indica; conditions: Preemergence, 0 to 100 scale
How it was run: as §1

[3] = Rate 16 g/ha, 0 no injury, 100 complete control
[4] = Rate 32 g/ha, 0 no injury, 100 complete control
[5] = Rate 64 g/ha, 0 no injury, 100 complete control
[6] = Rate 125 g/ha, 0 no injury, 100 complete control
[7] = Rate 125 g/ha, 0 to 100 scale (0 no effect, 100 complete control)
[8] = Rate 500 g/ha, 0 to 100 scale where 0 is no effect and 100 is complete control
[9] = Rate 1000 g/ha, 0 to 100 scale where 0 is no effect and 100 is complete control
[10] = Postemergence, Rate 62 g/ha, scale 0 to 10, 0 is no effect, 10 is complete control
[11] = Postemergence, Rate 250 g/ha, scale 0 to 10, 0 no effect, 10 complete control
[12] = Postemergence, Rate 1000 g/ha, scale 0 to 10 (0 no effect, 10 complete control)
[13] = Preemergence, Rate 31 g/ha, visual rating, scale 0 to 10 (0 no effect, 10 complete control)
[14] = Preemergence, Rate 62 g/ha, scale 0 to 10, 0 is no effect, 10 is complete control
[15] = Preemergence, Rate 125 g/ha, scale 0 to 10 (0 no effect, 10 complete control)
[16] = Preemergence, Rate 250 g/ha, scale of 0 to 10 where 0 is no effect and 10 is complete control
[17] = Preemergence, Rate 500 g/ha, scale 0 (no effect) to 10 (complete control)
[18] = Rate 31 g/ha, Postemergence, scale 0 to 10
[19] = Rate 125 g/ha, Postemergence, scale 0 to 10, 0 no effect, 10 complete control
[20] = Rate 500 g/ha, Postemergence, 0 to 10 scale (0 no effect, 10 complete control)
[21] = Rate 1000 g/ha, Preemergence, scale 0 to 10 (0 no effect, 10 complete control)
[22] = Rate 31 g/ha, Postemergence section (flood test species), scale 0 to 10
[23] = Rate 125 g/ha, Postemergence section (flood test species), scale 0 to 10, 0 no effect, 10 complete control
[24] = Rate 500 g/ha, Postemergence section of Table B, 0 to 10 scale (0 no effect, 10 complete control)
[25] = flood test, listed under Postemergence, Rate 250 g/ha, scale 0 to 10, 0 no effect, 10 complete control

## Cc1ccccc1-n1c(=O)on(C(=O)N(c2ccc(F)cc2)C(C)C)c1=O [Compound 4]
Purple nutsedge; [3]
  Plant response rating, Purple nutsedge: 0
Purple nutsedge; [4]
  Plant response rating, Purple nutsedge: 0
Purple nutsedge; [5]
  Purple nutsedge plant response rating: 0
Purple nutsedge; [6]
  Purple nutsedge plant response rating: 0
Purple nutsedge; Rate 250 g/ha
  Plant response rating, Purple nutsedge: 0
Purple nutsedge; Rate 500 g/ha
  Plant response rating, Purple nutsedge: 0
blackgrass; [7]
  Plant response rating, Blackgrass: 30
blackgrass; Rate 250 g/ha, 0 to 100 scale
  Plant response rating, Blackgrass: 50
blackgrass; [8]
  Plant response rating, Blackgrass: 90
blackgrass; [9]
  Plant response rating, Blackgrass: 100
Wild oat; [7]
  Plant response rating, Wild oat: 10
Wild oat; [8]
  Plant response rating, Wild oat: 25
Wild oat; [9]
  Plant response rating, Wild oat: 50
morningglory; [10]
  Morningglory plant response rating: 0
morningglory; [11]
  Morningglory plant response rating: 3
morningglory; [12]
  Morningglory plant response rating: 3
morningglory; [13]
  Morningglory plant response rating: 0
morningglory; [14]
  Plant response rating, Morningglory: 0
morningglory; [15]
  Plant response rating, Morningglory: 0
morningglory; [16]
  Plant response rating, Morningglory: 0
morningglory; [17]
  Morningglory plant response rating: 0
morningglory; [18]
  Morningglory plant response rating: 0
morningglory; [19]
  Morningglory plant response rating: 2
morningglory; [20]
  Morningglory plant response rating: 3
morningglory; [21]
  Plant response rating, Morningglory: 0
Winter wheat [1]; Rate 125 g/ha, 0 to 100 scale
  Plant response rating, Wheat (winter): 0
Winter wheat [1]; Rate 250 g/ha, 0 to 100 scale (0 no effect, 100 complete control)
  Plant response rating, Wheat (winter): 0
Winter wheat [1]; Rate 1000 g/ha, 0 to 100 scale, 0 is no effect and 100 is complete control
  Plant response rating, Wheat (winter): 0
Winter wheat [1]; Rate 500 g/ha, 0 to 100 scale, 0 no effect, 100 complete control
  Plant response rating, Wheat (winter): 0
sandbur; [3]
  Plant response rating, Sandbur: 0
sandbur; [4]
  Plant response rating, Sandbur: 0
sandbur; [5]
  Sandbur plant response rating: 65
sandbur; [6]
  Sandbur plant response rating: 30
sandbur; Rate 250 g/ha
  Plant response rating, Sandbur: 90
sandbur; Rate 500 g/ha
  Plant response rating, Sandbur: 100
Winter wheat [2]; [7]
  Plant response rating, Wheat (winter): 0
Winter wheat [2]; Rate 250 g/ha, 0 to 100 scale
  Plant response rating, Wheat (winter): 0
Winter wheat [2]; [8]
  Plant response rating, Wheat (winter): 0
Winter wheat [2]; [9]
  Plant response rating, Wheat (winter): 0
Common pursiane; [3]
  Plant response rating, C. purslane: 0
Common pursiane; [4]
  Plant response rating, C. purslane: 0
Common pursiane; [5]
  Plant response rating, C. purslane: 0
Common pursiane; [6]
  Plant response rating, C. purslane: 0
Common pursiane; Rate 250 g/ha
  Plant response rating, C. purslane: 0
Common pursiane; Rate 500 g/ha
  Plant response rating, C. purslane: 0
Duck salad; [10]
  Ducksalad plant response rating: 0
Duck salad; [12]
  Ducksalad plant response rating: 3
Duck salad; [22]
  Ducksalad plant response rating: 0
Duck salad; [23]
  Ducksalad plant response rating: 0
Duck salad; [24]
  Ducksalad plant response rating: 2
Duck salad; [25]
  Ducksalad plant response rating: 2
Giant foxtail; [10]
  Giant foxtail plant response rating: 0
Giant foxtail; [11]
  Giant foxtail plant response rating: 3
Giant foxtail; [12]
  Giant foxtail plant response rating: 6
Giant foxtail; [13]
  Giant foxtail plant response rating: 8
Giant foxtail; [14]
  Plant response rating, Giant foxtail: 9
Giant foxtail; [15]
  Plant response rating, Giant foxtail: 9
Giant foxtail; [16]
  Plant response rating, Giant foxtail: 10
Giant foxtail; [17]
  Giant foxtail plant response rating: 10
Giant foxtail; [18]
  Giant foxtail plant response rating: 0
Giant foxtail; [19]
  Giant foxtail plant response rating: 5
Giant foxtail; [20]
  Giant foxtail plant response rating: 4
Giant foxtail; [21]
  Plant response rating, Giant foxtail: 10
Italian ryegrass; [7]
  Plant response rating, I. Ryegrass: 20
Italian ryegrass; Rate 250 g/ha, 0 to 100 scale
  Plant response rating, I. Ryegrass: 20
Italian ryegrass; [8]
  Plant response rating, I. Ryegrass: 50
Italian ryegrass; [9]
  Plant response rating, I. Ryegrass: 85
Green foxtail; [7]
  Plant response rating, Green foxtail: 50
Green foxtail; Rate 250 g/ha, 0 to 100 scale
  Plant response rating, Green foxtail: 55
Green foxtail; [8]
  Plant response rating, Green foxtail: 100
Green foxtail; [9]
  Plant response rating, Green foxtail: 100
rice; [10]
  Rice plant response rating: 0
rice; [12]
  Rice plant response rating: 0
rice; [22]
  Rice plant response rating: 0
rice; [23]
  Rice plant response rating: 0
rice; [24]
  Rice plant response rating: 0
rice; [25]
  Rice plant response rating: 0
Winter barley; [7]
  Plant response rating, Barley (winter): 10
Winter barley; Rate 250 g/ha, 0 to 100 scale
  Plant response rating, Barley (winter): 10
Winter barley; [8]
  Plant response rating, Barley (winter): 10
Winter barley; [9]
  Plant response rating, Barley (winter): 10
goosegrass; [3]
  Plant response rating, Goosegrass: 70
goosegrass; [4]
  Plant response rating, Goosegrass: 85
goosegrass; [5]
  Plant response rating, Goosegrass: 95
goosegrass; [6]
  Plant response rating, Goosegrass: 98
goosegrass; Rate 250 g/ha
  Plant response rating, Goosegrass: 98
goosegrass; Rate 500 g/ha
  Plant response rating, Goosegrass: 100

Source: patent publication US6737383B1, “Herbicidal oxadiazolidines” (priority 1999, dated 2004)
